Measured values published in US11111232B2, “Substituted cyclobutylpyridine and cyclobutylpyrimidine compounds as indoleamine 2,3-dioxygenase (IDO) inhibitors” (MERCK SHARP & DOHME CORP., priority 2017, dated 2021).

How the values were obtained:
Format in all cases: cell-based
[1] = target: T1, IDO1 (Homo sapiens, UniProt P14902); test: IDO1 cellular assay in Hela cells stimulated with IFNγ; details: IFNγ 100 ng/mL, 300 uM L-tryptophan, about 48 hours, fluorescence readout
Experimental: IDO1 Cellular Assay in Hela Cells Stimulated with IFNγ
Hela cells were cultured in complete Hela culture medium (90% EMEM, 10% heat-inactivated fetal bovine serum) and expanded to about 1×10^9 cells. The cells were then collected and frozen down at 1×10^7 cells/vial in 1 mL frozen medium (90% complete Hela culture medium, 10% DMSO)
Compounds to be tested were serially diluted in ten 3-fold steps in DMSO starting from 10 mM DMSO stocks in Echo low volume plate(s).
Frozen Hela cells were thawed and transferred into Hela assay medium (99% complete Hela culture medium, 1% Pen/Strep) with 20 mL medium/vial of cells. The cells were spun down at 250 g in a table top centrifuge for 5 min and suspended in same volume of Hela assay medium. […] Sterile L-tryptophan were added to the cells with final concentration of 300 uM L-tryptophan. A small aliquot (2 mL/plate) of Hela cells were set aside and were not treated with IFNγ, to serve as the Max-E control.
Hela cells with and without IFNγ were dispensed to the respective wells of 384-well assay plates containing the compounds. The plates were incubated for about 48 hours at a 37° C., 5% CO2 incubator. Afterwards, […] of 0.5 M methyl isonipecotate in dimethyl sulfoxide were added into each well and the plates were sealed and incubated at 37° C. without CO2 overnight. The plates were centrifuged for 1 min at 200×g. The resulting fluorescence was measured in a Spectramax plate reader (Molecular Devices) with a 400 nm excitation filter and a 510 nm emission filter.
Potencies were calculated by linear least squares fit to the four parameter logistic IC50 equation.

[2] = target: T2, TDO (Homo sapiens, UniProt P48775); test: TDO cellular assay in frozen SW48 cells; details: 300 uM L-tryptophan, about 48 hours, fluorescence readout
T2 construct: endogenous in cells; host or cells: SW48 cells (A2780 cells as low-TDO control)
T2 sequence (P48775 whole entry): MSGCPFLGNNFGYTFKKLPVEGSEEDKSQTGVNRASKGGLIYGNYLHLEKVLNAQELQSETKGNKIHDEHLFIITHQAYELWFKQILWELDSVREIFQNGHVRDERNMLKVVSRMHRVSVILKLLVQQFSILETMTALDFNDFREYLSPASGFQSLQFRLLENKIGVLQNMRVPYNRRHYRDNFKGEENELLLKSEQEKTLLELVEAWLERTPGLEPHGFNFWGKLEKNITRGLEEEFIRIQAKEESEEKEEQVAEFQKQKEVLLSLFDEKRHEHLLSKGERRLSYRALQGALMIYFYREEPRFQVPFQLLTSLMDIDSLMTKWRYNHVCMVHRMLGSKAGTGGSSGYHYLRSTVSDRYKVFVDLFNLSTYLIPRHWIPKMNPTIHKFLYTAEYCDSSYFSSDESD
Experimental: TDO Cellular Assay in Frozen SW48 Cells
SW48 cells were cultured in complete RPMI culture medium (90% RPMI, 10% heat-inactivated fetal bovine serum).
Compounds to be tested were serially diluted in ten 3-fold steps in DMSO starting from 10 mM DMSO stocks in Echo low volume plate(s). […] The cells were spun down at 350 g in a table top centrifuge for 5 minutes and suspended in same volume of RPMI assay medium. […] Sterile L-tryptophan (Sigma, Cat #T0254) was added to the cells with final concentration of 300 uM.
SW48 and A2780 cells were dispensed to the respective wells of 384-well assay plates containing the compounds. The plates were incubated for about 48 hours at a 37° C., 5% CO2 incubator. Afterwards, 12 μL of 0.5 M ethyl isonipecotate (Sigma Aldrich, Cat #E33505) in dimethyl sulfoxide were added into each well and the plates were sealed and incubated at 37° C. without CO2 overnight. The plates were centrifuged for 1 minute at 200×g. The resulting fluorescence was measured in a Spectramax plate reader (Molecular Devices) with a 400 nm excitation filter and a 510 nm emission filter.
The fluorescence intensity of each well was corrected for the background observed in wells with A2780 cells and was expressed as a fraction of the intensity observed in wells of SW48 cells and DMSO only. Potencies were calculated by linear least squares fit to the four parameter logistic IC50 equation.

[3] = target: T1, IDO1; test: IDO1 human whole blood assay; set-up: Human whole blood was drawn in sodium heparin coated tubes from healthy internal donors; from tissue; host or cells: human whole blood from healthy donors, stimulated with LPS and IFNγ; details: LPS and IFNγ 100 ng/mL, 18 h, kynurenine by LC/MS/MS
Experimental: IDO1Human Whole Blood Assay
Compounds to be tested were serially diluted in ten 3-fold steps in DMSO starting from 10 mM. […] LPS and IFNγ was prepared in RPMI to a 10× of final conc. (1000 ng/mL), final concentration is 100 ng/mL.
Human whole blood was drawn in sodium heparin coated tubes from healthy internal donors. […] of blood was transferred to each of the wells of a v-bottom 96 well plate. […] of compound was transferred from intermediate dilution plate, and incubated for 15 min. 30 μL from stimulants was then transferred to blood and mixed thoroughly. Plate was covered with breathable membrane and incubated at 37° C. for overnight (18 h).
On day 2 isotope labeled standard of kynurenine and tryptophan was made in water at 10× concentration and […] was added to the blood at […] final concentration. The assay plates were centrifuged at 300×G for 10 min with no brake to separate plasma from red blood cells. […] of plasma samples was removed without disturbing red blood cells. Plasma was diluted with RPMI in 1:1 ratio and proteins were precipitated out with two volume of Acetonitrile. The plates was centrifuged at 4000×G for 60 min. 20 mL of supernatant was carefully transferred to a 384 well plate contain 40 mL of 0.1% formic acid in water and analyzed by LC/MS/MS.
LC/MS/MS analyses were performed using Thermo Fisher's LX4-TSQ Quantum Ultra system. This system consists of four Agilent binary high-performance liquid chromatography (HPLC) pumps and a TSQ Quantum Ultra triple quadruple MS/MS instrument. For each sample, […] were injected onto an Atlantis T3 column (2.1 mm×150 mm, […]) from Waters. The mobile phase gradient pumped at 0.8 mL/min was used to elute the analytes from the column at 25° C. […] Mobile phase A consisted of 0.1% formic acid in water. Mobile phase B consisted of 0.1% of formic acid in acetonitrile. Data was acquired in positive mode using a HESI interface. The operational parameters for the TSQ Quantum Ultra instrument were a spray voltage of 4000 V, capillary temperature of 380° C., vaporizer temperature 400° C., shealth gas 60 arbitrary units, Aux gas 20 arbitrary units, tube lens 85 and collision gas 1.2 mTorr. […] The peak area was integrated by Xcalibur Quan software. The ratios between the kynurenine generated in the reaction and 2D6-Kynurenine spiked-in internal standard were used to generate percentage inhibition and IC50 values. Compounds were titrated and IC50′s were calculated by 4 parameter sigmoidal curve fitting formula.

T1 sequence (P14902 whole entry): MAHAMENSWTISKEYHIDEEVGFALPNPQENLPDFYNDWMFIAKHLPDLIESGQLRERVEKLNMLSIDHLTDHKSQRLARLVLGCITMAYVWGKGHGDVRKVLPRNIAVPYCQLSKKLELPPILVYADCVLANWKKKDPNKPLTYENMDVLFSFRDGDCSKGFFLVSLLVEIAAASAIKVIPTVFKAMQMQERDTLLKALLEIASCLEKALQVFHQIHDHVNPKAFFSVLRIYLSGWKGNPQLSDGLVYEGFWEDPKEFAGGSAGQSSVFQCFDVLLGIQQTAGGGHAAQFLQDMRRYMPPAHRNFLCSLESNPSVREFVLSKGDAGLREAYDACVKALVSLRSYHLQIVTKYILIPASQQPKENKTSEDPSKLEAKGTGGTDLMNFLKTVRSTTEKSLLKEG

Row | Compound | IC50 [1] [nM] | IC50 [2] [nM] | IC50 [3] [nM]
1 | O=C(Nc1ccc(C2(C(=O)Nc3ccc(F)cc3)CCC2)cn1)c1cccc(Cl)c1F [Example 14, 3-chloro-2-fluoro-N-(5-{1-[(4-fluorophenyl)carbamoyl]cyclobutyl}pyridin-2-yl)benzamide] | 2080 | ≥ 10000 | 157
2 | O=C(Nc1ccc(C2(C(=O)Nc3ccc(F)cc3)CCC2)cn1)c1ccnc(C(F)(F)F)c1 [Example 29, N-(5-{1-[(4-fluorophenyl)carbamoyl]cyclobutyl}pyridin-2-yl)-2-(trifluoromethyl)pyridine-4-carboxamide] | 28 | ≥ 10000 | 2880
3 | Cc1cc(C(=O)Nc2ccc(C3(NC(=O)c4ccc(Cl)nc4)CCC3)nc2)ccn1 [Example 46, 6-chloro-N-(1-{5-[(2-methylpyridine-4-carbonyl)amino]pyridin-2-yl}cyclobutyl)pyridine-3-carboxamide] | 1060 | ≥ 10000 | –
4 | N#Cc1ccc(C(=O)Nc2ccc(C3(NC(=O)c4ccc(Cl)nc4)CCC3)nc2)cc1 [Example 47, 6-chloro-N-(1-{5-[(4-cyanobenzene-1-carbonyl)amino]pyridin-2-yl}cyclobutyl)pyridine-3-carboxamide] | 2000 | ≥ 10000 | –
5 | N#Cc1cccc(C(=O)Nc2ccc(C3(NC(=O)c4ccc(Cl)nc4)CCC3)nc2)c1 [Example 48, 6-chloro-N-(1-{5-[(3-cyanobenzene-1-carbonyl)amino]pyridin-2-yl}cyclobutyl)pyridine-3-carboxamide] | 35 | ≥ 10000 | –
6 | N#Cc1cncc(C(=O)Nc2ccc(C3(NC(=O)c4ccc(Cl)nc4)CCC3)nc2)c1 [Example 49, N-(6-{1-[(6-chloropyridine-3-carbonyl)amino]cyclobutyl}pyridin-3-yl)-5-cyanopyridine-3-carboxamide] | 1210 | ≥ 10000 | –
7 | O=C(NC1(c2ccc(NC(=O)c3ncccn3)cn2)CCC1)c1ccc(Cl)nc1 [Example 50, N-(6-{1-[(6-chloropyridine-3-carbonyl)amino]cyclobutyl}pyridin-3-yl)pyrimidine-2-carboxamide] | 1700 | ≥ 10000 | –

These reach a lower IC50 [1]. Values come first.

Row | IC50 [1] [nM] | IC50 [2] [nM] | IC50 [3] [nM] | Compound
8 | 25 | ≥ 10000 | 8560 | O=C(Nc1ccc(C2(C(=O)Nc3ccc(F)nc3)CCC2)cn1)C1CCCCC1 [Example 7, N-(5-{1-[(6-fluoropyridin-3-yl)carbamoyl]cyclobutyl}pyridin-2-yl) cyclohexanecarboxamide]
9 | 20 | ≥ 10000 | – | O=C(Nc1ccc(C2(NC(=O)c3ccc(Cl)nc3)CCC2)nc1)c1cccc(F)c1 [Example 51, 6-chloro-N-(1-{5-[(3-fluorobenzene-1-carbonyl)amino]pyridin-2-yl}cyclobutyl)pyridine-3-carboxamide]
10 | 15 | ≥ 10000 | 1760 | O=C(Nc1ccc(C2(C(=O)Nc3ccc(F)cn3)CCC2)nc1)c1cccc(Cl)c1 [Example 37, 3-chloro-N-(6-{1-[(5-fluoropyridin-2-yl)carbamoyl]cyclobutyl}pyridin-3-yl)benzamide]
11 | 12 | ≥ 10000 | 561 | O=C(Nc1ccc(C2(C(=O)Nc3ccc(F)cc3)CCC2)cn1)c1cncc(Cl)c1 [Example 25, 5-chloro-N-(5-{1-[(4-fluorophenyl)carbamoyl]cyclobutyl}pyridin-2-yl)pyridine-3-carboxamide]
12 | 9 | ≥ 10000 | 406 | O=C(Nc1ccc(C2(NC(=O)c3ccc(Cl)nc3)CCC2)nc1)c1cc(F)cc(F)c1 [Example 41, 6-chloro-N-(1-{5-[(3,5-difluorobenzene-1-carbonyl)amino]pyridin-2-yl}cyclobutyl)pyridine-3-carboxamide]
13 | 8 | ≥ 10000 | 351 | N#Cc1cccc(C(=O)Nc2ccc(C3(C(=O)Nc4ccc(F)cc4)CCC3)cn2)c1 [Example 24, 3-cyano-N-(5-{1-[(4-fluorophenyl)carbamoyl]cyclobutyl}pyridin-2-yl)benzamide]
14 | 8 | ≥ 10000 | 696 | O=C(Nc1ccc(C2(NC(=O)c3ccc(Cl)nc3)CCC2)nc1)c1cccc(Cl)c1 [Example 42, 6-chloro-N-(1-{5-[(3-chlorobenzene-1-carbonyl)amino]pyridin-2-yl}cyclobutyl)pyridine-3-carboxamide]
15 | 3 | ≥ 10000 | 102 | O=C(Nc1ccc(C2(C(=O)Nc3ccc(F)cc3)CCC2)cn1)c1cccc(F)c1 [Example 23, 3-Fluoro-N-(5-(1-((4-fluorophenyl)carbamoyl)cyclobutyl)pyridin-2-yl)benzamide]
16 | 3 | ≥ 10000 | 252 | O=C(Nc1ccc(C2(C(=O)Nc3ccc(F)cc3)CCC2)nc1)c1cccc(Cl)c1 [Example 36, 3-Chloro-N-(6-(1-((4-fluorophenyl)carbamoyl)cyclobutyl)pyridin-3-yl)benzamide]
17 | 2 | – | 9 | O=C(Nc1ccc(C2(C(=O)Nc3ccc(F)cc3)CCC2)nc1CO)c1cccc(Cl)c1 [Example 55, 3-Chloro-N-(6-(1-((4-fluorophenyl)carbamoyl)cyclobutyl)-2-(hydroxymethyl)pyridin-3-yl)benzamide]
